{
  "source": "patent US20070281927A1",
  "about": "“Anti-inflammatory and analgesic compositions and related methods” (priority 2006, published 2007)",
  "origin": "cited, not measured here",
  "key": {"[1]": {"experiment": "not given", "remark": "listed apart in the source"}},
  "data": [
    {"molecule": "Cc1cnc(NC(=O)C2=C(O)c3ccccc3S(=O)(=O)N2C)s1", "note": "[Meloxicam, 4-hydroxy-2-methyl-N-(5-methyl-2-thiazolyl-)-2H-1,2-benzothiazine-3-carboxamide 1,1-dioxide]", "values": [
      {"measurement": "solubility in acidic or neutral mediums", "setting": "acidic or neutral mediums", "value": "low solubility"},
      {"measurement": "solubility at the acidic pH range of the upper gastrointestinal tract", "setting": "acidic pH range of the upper gastrointestinal tract", "value": "poorly soluble"},
      {"measurement": "solubility in water", "setting": "water", "value": "practically insoluble"},
      {"measurement": "time to maximum plasma concentration", "setting": "[1]; after oral administration, many individuals", "value": "≥ 5", "unit": "h"},
      {"measurement": "time of second meloxicam concentration peak", "setting": "[1]; post-dose, suggests gastrointestinal recirculation", "value": "twelve to fourteen"},
      {"measurement": "bioavailability", "setting": "[1]; single 30 mg oral dose compared to 30 mg intravenous bolus injection", "value": 89, "unit": "%"}
    ]}
  ]
}
